According to PubChem BioAssay AID2060337 (Molecular Pharmacology Branch, DTP, NCI, 2025):

Test system: 832693-133-R-J1-PDC multi-cell spheroids, viability
Test: Anticancer human tumor 832693-133-R-J1-PDC patient-derived head and neck squamous carcinoma cell line growth inhibition [IpAb]
Conditions: for IC50: curve of first compound; for viability, T/C: stronger effect = lower value
Outline: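 Spheroids of 60% malignant cells, 25% HUVEC and 15% MSC were exposed to targeted agents combined with ipatasertib or abemaciclib. Doses started at or near clinical Cmax (10 microM when unknown) and fell in half-log steps.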

[1] = second compound 0.1 µM, first compound 0.0316 µM
[2] = second compound 0.1 µM, first compound 0.1 µM
[3] = second compound 0.316 µM, first compound 0.0316 µM
[4] = second compound 0.316 µM, first compound 0.1 µM
[5] = second compound 1 µM, first compound 0.0316 µM
[6] = second compound 1 µM, first compound 0.1 µM
[7] = second compound 3.16 µM, first compound 0.0316 µM
[8] = second compound 3.16 µM, first compound 0.1 µM
[9] = second compound 10 µM, first compound 0.0316 µM
[10] = second compound 10 µM, first compound 0.1 µM
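Also: spheroids exposed to the drugs for one week before the viability readout.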
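For viability, T/C in this document: 100% = DMSO vehicle control wells.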

C=CC(=O)N1CCN(c2nc(=O)n(-c3c(C)ccnc3C(C)C)c3nc(-c4c(O)cccc4F)c(F)cc23)C(C)C1 (stereo not given) + CC(C)NCC(C(=O)N1CCN(c2ncnc3c2C(C)CC3O)CC1)c1ccc(Cl)cc1
IC50 (second compound 0.1 µM): > 10000 nM | IC50 (second compound 0.316 µM): 4460 nM | IC50 (second compound 1 µM): 237 nM | IC50 (second compound 3.16 µM): 309 nM | IC50 (second compound 10 µM): 3740 nM | viability, T/C [1]: 96.1% | viability, T/C [2]: 91.6% | viability, T/C (second compound 0.1 µM, first compound 0.316 µM): 86% | viability, T/C (second compound 0.1 µM, first compound 1 µM): 92.2% | viability, T/C (second compound 0.1 µM, first compound 3.16 µM): 104% | viability, T/C (second compound 0.1 µM, first compound 10 µM): 77.3% | viability, T/C [3]: 81.1% | viability, T/C [4]: 75.3% | viability, T/C (second compound 0.316 µM, first compound 0.316 µM): 70.9% | viability, T/C (second compound 0.316 µM, first compound 1 µM): 67.2% | viability, T/C (second compound 0.316 µM, first compound 3.16 µM): 56.6% | viability, T/C (second compound 0.316 µM, first compound 10 µM): 36.6% | viability, T/C [5]: 53.6% | viability, T/C [6]: 55% | viability, T/C (second compound 1 µM, first compound 0.316 µM): 48.2% | viability, T/C (second compound 1 µM, first compound 1 µM): 41.8% | viability, T/C (second compound 1 µM, first compound 3.16 µM): 34.7% | viability, T/C (second compound 1 µM, first compound 10 µM): 18.8% | viability, T/C [7]: 55.7% | viability, T/C [8]: 52.4% | viability, T/C (second compound 3.16 µM, first compound 0.316 µM): 49.1% | viability, T/C (second compound 3.16 µM, first compound 1 µM): 43% | viability, T/C (second compound 3.16 µM, first compound 3.16 µM): 36.8% | viability, T/C (second compound 3.16 µM, first compound 10 µM): 17% | viability, T/C [9]: 53.4% | viability, T/C [10]: 69% | viability, T/C (second compound 10 µM, first compound 0.316 µM): 65.8% | viability, T/C (second compound 10 µM, first compound 1 µM): 57.3% | viability, T/C (second compound 10 µM, first compound 3.16 µM): 56% | viability, T/C (second compound 10 µM, first compound 10 µM): 18.4%

CC(C)(C)c1cnc(CSc2cnc(NC(=O)C3CCNCC3)s2)o1 + CC(C)NCC(C(=O)N1CCN(c2ncnc3c2C(C)CC3O)CC1)c1ccc(Cl)cc1
IC50 (second compound 0.1 µM): 219 nM | IC50 (second compound 0.316 µM): 189 nM | IC50 (second compound 1 µM): 137 nM | IC50 (second compound 3.16 µM): 133 nM | IC50 (second compound 10 µM): 158 nM | viability, T/C (second compound 0.1 µM, first compound 0.00949 µM): 101% | viability, T/C (second compound 0.1 µM, first compound 0.03 µM): 122% | viability, T/C (second compound 0.1 µM, first compound 0.0949 µM): 146% | viability, T/C (second compound 0.1 µM, first compound 0.3 µM): 22.2% | viability, T/C (second compound 0.1 µM, first compound 0.949 µM): 1.14% | viability, T/C (second compound 0.1 µM, first compound 3 µM): 1.67% | viability, T/C (second compound 0.316 µM, first compound 0.00949 µM): 92.5% | viability, T/C (second compound 0.316 µM, first compound 0.03 µM): 94.2% | viability, T/C (second compound 0.316 µM, first compound 0.0949 µM): 113% | viability, T/C (second compound 0.316 µM, first compound 0.3 µM): 16.5% | viability, T/C (second compound 0.316 µM, first compound 0.949 µM): 0.85% | viability, T/C (second compound 0.316 µM, first compound 3 µM): 1.58% | viability, T/C (second compound 1 µM, first compound 0.00949 µM): 67.7% | viability, T/C (second compound 1 µM, first compound 0.03 µM): 70.7% | viability, T/C (second compound 1 µM, first compound 0.0949 µM): 75.6% | viability, T/C (second compound 1 µM, first compound 0.3 µM): 4.32% | viability, T/C (second compound 1 µM, first compound 0.949 µM): 1.17% | viability, T/C (second compound 1 µM, first compound 3 µM): 1.18% | viability, T/C (second compound 3.16 µM, first compound 0.00949 µM): 60% | viability, T/C (second compound 3.16 µM, first compound 0.03 µM): 68% | viability, T/C (second compound 3.16 µM, first compound 0.0949 µM): 81.9% | viability, T/C (second compound 3.16 µM, first compound 0.3 µM): 1.46% | viability, T/C (second compound 3.16 µM, first compound 0.949 µM): 1.05% | viability, T/C (second compound 3.16 µM, first compound 3 µM): 1.4% | viability, T/C (second compound 10 µM, first compound 0.00949 µM): 75% | viability, T/C (second compound 10 µM, first compound 0.03 µM): 83.4% | viability, T/C (second compound 10 µM, first compound 0.0949 µM): 108% | viability, T/C (second compound 10 µM, first compound 0.3 µM): 0.9% | viability, T/C (second compound 10 µM, first compound 0.949 µM): 1.13% | viability, T/C (second compound 10 µM, first compound 3 µM): 1.37%

Cn1ncnc1[C@H]1c2n[nH]c(=O)c3cc(F)cc(c23)N[C@@H]1c1ccc(F)cc1 + CC(C)NCC(C(=O)N1CCN(c2ncnc3c2C(C)CC3O)CC1)c1ccc(Cl)cc1
IC50 (second compound 0.1 µM): > 100 nM | IC50 (second compound 0.316 µM): > 100 nM | IC50 (second compound 1 µM): 4.7 nM | IC50 (second compound 3.16 µM): 8.16 nM | IC50 (second compound 10 µM): > 100 nM | viability, T/C (second compound 0.1 µM, first compound 0.000316 µM): 96% | viability, T/C (second compound 0.1 µM, first compound 0.001 µM): 94% | viability, T/C (second compound 0.1 µM, first compound 0.00316 µM): 74.7% | viability, T/C (second compound 0.1 µM, first compound 0.01 µM): 80.7% | viability, T/C [1]: 85.6% | viability, T/C [2]: 72.4% | viability, T/C (second compound 0.316 µM, first compound 0.000316 µM): 77.8% | viability, T/C (second compound 0.316 µM, first compound 0.001 µM): 87.5% | viability, T/C (second compound 0.316 µM, first compound 0.00316 µM): 69.2% | viability, T/C (second compound 0.316 µM, first compound 0.01 µM): 61.1% | viability, T/C [3]: 65.3% | viability, T/C [4]: 52.9% | viability, T/C (second compound 1 µM, first compound 0.000316 µM): 59.5% | viability, T/C (second compound 1 µM, first compound 0.001 µM): 56.8% | viability, T/C (second compound 1 µM, first compound 0.00316 µM): 49.3% | viability, T/C (second compound 1 µM, first compound 0.01 µM): 48% | viability, T/C [5]: 42.7% | viability, T/C [6]: 35.9% | viability, T/C (second compound 3.16 µM, first compound 0.000316 µM): 57.9% | viability, T/C (second compound 3.16 µM, first compound 0.001 µM): 61% | viability, T/C (second compound 3.16 µM, first compound 0.00316 µM): 56.1% | viability, T/C (second compound 3.16 µM, first compound 0.01 µM): 46.5% | viability, T/C [7]: 41.7% | viability, T/C [8]: 36.2% | viability, T/C (second compound 10 µM, first compound 0.000316 µM): 83.5% | viability, T/C (second compound 10 µM, first compound 0.001 µM): 69.4% | viability, T/C (second compound 10 µM, first compound 0.00316 µM): 65% | viability, T/C (second compound 10 µM, first compound 0.01 µM): 62.6% | viability, T/C [9]: 63.2% | viability, T/C [10]: 47.8%
